[5FU] = 5-fluorouracil (a halouracil) replacing uracil

Data on two substances can be found in US12319913B2, “5-halouracil-modified microRNAs and their use in the treatment of cancer” (The Research Foundation for The State University of New York, priority 2018, dated 2025).

Data set [1] relates to MDA-MB-231 breast cancer cells. Nature of the data set: Cell cycle analysis, MDA-MB-231 breast cancer cells. The conditions noted are these: compared to native exogenous microRNAs or NC. In kind it is cell-based, human. The method, then:
Cell cycle analysis: Twenty-four hours after transfection, cells were harvested and resuspended at 0.5 to 1×10^6 cells/mL in modified Krishan's buffer supplemented with 0.02 mg/mL RNase H and 0.05 mg/mL propidium iodide. Stained cells were detected by flow cytometry and results were analyzed with Modfit LT™ software. The experiments for cell cycle analysis were performed at least three times.

Data set [2] has as its system MDA-MB-231 triple negative breast cancer cells. Nature of the data set: MTT cell proliferation, MDA-MB-231, with or without oligofectamine. The settings on record: for cell proliferation without delivery vehicle (no oligofectamine): MDA-MB-231, MTT assay; for cell proliferation in the presence of oligofectamine: MDA-MB-231, MTT assay for 6 days, vs miR-NC. In kind it is cell-based, human. The method, then: (§1) For transfections, 1×10^5 cells were plated in six-well plates and transfected with 100 nM of control non-specific miRNA (Thermo Fischer), a modified microRNA, or exogenous native microRNA after 24 hours using Oligofectamine (Thermo Fischer) following the manufacturer's protocols. For reagent free transfection, cells were plated in 6 well plates at (1×10^5) cells per well. Twenty-four hours later 100 pmol miRNA (Control, miR-15a, Mimic-1) were diluted in Optimem (Thermo Fischer) and added to the plate. Media was changed after 24 hours. Media was supplemented with 10% fetal bovine serum (Thermo Fischer). Briefly, cells were cultured in growth media (DMEM/F12 supplemented with B27, 10 ng/mL bFGF, and 20 ng/mL EGF (Life Technologies) in ultra-low attachment flasks) for up to 6 days. The spheroid cells were maintained by collection through gentle centrifugation, dissociation to single cells and replating.
Furthermore, to test whether or not the modified microRNAs of the present disclosure can be delivered directly to cells and taken up by the cancer cells without the use of transfer agents or vehicles (i.e., oligofectamine), MDA-MB-231 triple negative breast cancer cells were transfected with miR-NC (negative control), exogenous unmodified miR-200b or miR-489, 5-FU-miR-200b or modified miR-489 by using oligofectamine or without delivery vehicle. As shown in FIGS. 17A-17B and 20A, the effects of expression of the exemplary modified miRs tested on breast cancer cell proliferation were monitored by MTT assay for 6 days upon transfection or incubation.
In general terms: Formazan colour is commonly taken as a measure of viable cells.

For a further data set, the target named is T1, TS-FdUMP (Homo sapiens, UniProt P04818).
T1 construct: endogenous in cells
In words: Western blot of TS / TS-FdUMP in MDA-MB-231 cells. In kind it is cell-based. The method, then: (§2) Western immunoblot analysis: Forty-eight hours after transfection, equal amounts of protein (15 μg) extracted from cells lysed in RIPA buffer with protease inhibitor (Sigma) and were separated on 10%-12% sodium dodecyl sulfate-polyacrylamide gels using standard procedures. The primary antibodies used for the analysis were rabbit anti-YAP1 monoclonal antibody (1:10000) (Cell Signaling Technologies), anti-DLCK1 (1:500) (Abcam), anti-BCL2 (1:500) (NeoMarkers), anti-MDC1 (1:500), anti-SUZ12 (1:500), anti-pChk-1 (1:500), anti beta-actin (1:500), anti-BMI-1 (1:10000) (Cell Signaling Technologies), mouse anti-human TS antibody (1:500), anti-α-tubulin (1:50000) (Santa Cruz Biotech Inc.), anti-GAPDH (1:100000) (Santa Cruz Biotech Inc.), anti-E2F3 (1:500) (Santa Cruz Biotech Inc.), Horseradish peroxidase-conjugated antibodies against mouse or rabbit (1:5000, Santa Cruz Biotech Inc.) were used as the secondary antibodies. Protein bands were visualized with autoradiography film using SuperSignal West Pico Chemiluminescent Substrate (Thermo Fischer). Western blot density was quantified using Image J software.
Background: In western blotting, separated proteins are transferred to a membrane and probed.

A further data set relates to MDC1 and SUZ12. Nature of the data set: Western blot of MDC1 and SUZ12 in triple negative breast cancer cells. In kind it is cell-based, human. The method, then: as §2
Data set [3] concerns MDA-MB-231 breast cancer cells. In words: Triple negative breast cancer xenograft mouse model (MDA-MB-231, tail vein). In kind it is in vivo. The settings on record: intravenous, every other day for 17 days, vs negative control and native miR-489. The method, then:
Modified miR-489 inhibits breast cancer development and progression in vivo. A triple negative breast cancer xenograft mouse model was developed by tail vein injection of MDA-MB-231 breast cancer cells and tumors were developed over time. Mice were then injected with modified miR-489 composition having the nucleotide sequence set forth in SEQ ID NO: 32, exogenous native miR-489, or negative control miRNA by intravenous injection with treatment frequency of one injection every other day for 17 days and mice were euthanized and tumors size was measured using imaging techniques.

In data set [4] the test system is Panc-1 pancreatic cancer cells. In words: Cell proliferation, Panc-1. The settings on record: PANC-1; 50 nM, 25 nM, 12.5 nM, 6.25 nM, and 3.125 nM. In kind it is cell-based, human. The method, then:
as §1, with “For transfections, 1×10^5 cells were plated in six-well plates and transfected with 100 nM of control non-specific miRNA (Thermo Fischer), a modified microRNA, or exogenous native microRNA after 24 hours using Oligofectamine (Thermo Fischer) following the manufacturer's protocols.” left out
(§3) Cell proliferation assay: Twenty-four hours after transfection, cells were seeded in 96-well plates at a density of 2000 cells per well. The cell proliferation assay was performed on days 1 to 5 by incubating 10 μl WST-1 (Roche Applied Science, Mannheim, Germany) in the culture medium for 1 h and reading the absorbance at 450 and 630 nm. The cell proliferation rate was calculated by subtracting the […]. Experiments for the cell proliferation assay were performed at least three times. The O.D. was calculated by subtracting the absorbance at 630 nm from that at 450 nm. Proliferation experiments were performed three times.

The subject of data set [5] is AsPC-1 pancreatic cancer cells. In words: Cell proliferation, AsPC-1. In kind it is cell-based, human. The conditions noted are these: APSC-1; 50 nM, 25 nM, 12.5 nM, 6.25 nM, and 3.125 nM. The method, then:
as §1, with “For transfections, 1×10^5 cells were plated in six-well plates and transfected with 100 nM of control non-specific miRNA (Thermo Fischer), a modified microRNA, or exogenous native microRNA after 24 hours using Oligofectamine (Thermo Fischer) following the manufacturer's protocols.” left out
as §3

Another data set has as its system A549 lung cancer cells. In words: Cell proliferation, A549. In kind it is cell-based, human. The settings on record: A549, compared to negative controls. The method, then:
as §1, §3

The test system of data set [6] is Hs766T pancreatic cancer cells. In words: Cell proliferation, Hs766T. In kind it is cell-based, human. The settings on record: compared to negative controls. The method, then: as §1, §3
The test system of the next data set is AGS stomach cancer cells. Nature of the data set: Cell proliferation, AGS. In kind it is cell-based, human. The settings on record: compared to negative controls. The method, then: as §1, §3
The test system of data set [7] is SKBR3 breast cancer cells. In words: Cell proliferation, SKBR3. In kind it is cell-based, human. The conditions noted are these: SKBR3, compared to negative controls. The method, then:
as §1, §3

The subject of data set [8] is acute lymphocytic leukemia cell line (REH). In words: Cell proliferation, REH. In kind it is cell-based, human. The conditions noted are these: compared to negative controls. The method, then: as §1, §3
For another data set, the system named is fibronectin. Nature of the data set: Western blot of miR-200b target in breast cancer cells. In kind it is cell-based, human. The conditions noted are these: compared to exogenous native miR-200b and negative control. The method, then: as §2
Data set [9] has as its system acute lymphocytic leukemia cell line (REH). In words: Cell proliferation, REH. In kind it is cell-based, human. The conditions noted are these: 50 nM, 25 nM, 12.5 nM, 6.25 nM, and 3.125 nM.

T1 sequence (P04818 2-313 limits assumed): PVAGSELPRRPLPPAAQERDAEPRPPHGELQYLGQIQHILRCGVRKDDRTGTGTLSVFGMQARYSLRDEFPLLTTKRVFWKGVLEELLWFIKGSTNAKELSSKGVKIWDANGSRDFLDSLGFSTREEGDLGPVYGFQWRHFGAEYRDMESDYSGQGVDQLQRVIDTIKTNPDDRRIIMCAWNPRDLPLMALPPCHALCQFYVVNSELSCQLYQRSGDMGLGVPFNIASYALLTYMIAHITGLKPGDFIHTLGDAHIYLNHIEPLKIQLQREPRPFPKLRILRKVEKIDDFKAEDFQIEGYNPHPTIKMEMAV

Turning to “CGACGGCAU^FAU^FACACU^FACAGU^FG (CGACGGCAUAUACACUACAGUG; 5-fluorouracil replacing uracils, chemistry not fully specified) [modified miR-489]”, the “sub G1 and G1/S ratio” value in [1] is “significantly increase”. Further, in [2], the “cell proliferation without delivery vehicle (no oligofectamine)” value is “effectively reduced cell proliferation” and the “cell proliferation in the presence of oligofectamine” value is “dramatically reduced the cell growth from day 3”. In addition, the “expression of TS protein” value in the data set with TS-FdUMP (breast cancer cells, FIG. 21B) was “reduces the expression, and thus activity of TS protein”. The “MDC1 and SUZ12 protein expression without a transfection reagent” value in the data set with MDC1 and SUZ12 (MDA-MB-231, no oligofectamine) is “inhibits MDC1 and SUZ12 protein expression”. Besides, the “MDC1 and SUZ12 protein expression” value in the data set on MDC1 and SUZ12 (triple negative breast cancer cells, western blot) is “further reduction of SUZ12 and MDC1”. Also, in [3], the tumor size result is reported as “drastic reduction in tumor size”.
As for “U^FAAU^FACU^FGCCU^FGGU^FAAU^FGAU^FGA (UAAUACUGCCUGGUAAUGAUGA; RNA, [5FU] at 1, 4, 7, 11, 14, 17, 20, backbone not given here) [modified miR-200b, miR-200b in which all (7) U bases are replaced by 5-fluorouracil]”, the “sub G1 and G1/S ratio” value in data set [1] was “significantly increase”. Moreover, the “cell proliferation, dose dependence” value in data set [4] is given as “inhibited in a dose dependent manner”. Moreover, the “cell proliferation, dose dependence” value in data set [5] is “inhibited in a dose dependent manner”. Also, the “lung cancer cell proliferation” value in the data set on A549 lung cancer cells is “inhibited”. In addition, in data set [6], the “pancreatic cancer cell proliferation” value is “inhibited”. Besides, in the data set with AGS stomach cancer cells, the “gastric cancer cell proliferation” value was “inhibited”. In addition, in data set [7], the “breast cancer cell proliferation” value is given as “inhibited”. Besides, the “leukemia cancer cell proliferation” value in [8] was “inhibited”. For the same substance, in data set [2], the “cell proliferation without delivery vehicle (no oligofectamine)” value is on record as “effectively reduced cell proliferation” and the “cell proliferation in the presence of oligofectamine” value is “dramatically reduced the cell growth from day 3”. Besides, the “fibronectin (miR-200b target gene) expression” value in the data set on fibronectin is “reduction of fibronectin”. The TS-FdUMP break down entry with TS-FdUMP (MDA-MB-231 cell line) is “breaks down TS-FdUMP”. Besides, the “leukemia cancer cell proliferation, dose dependence” value in data set [9] is recorded as “inhibited in a dose dependent manner”.
